According to US12391825B2, “Thermoplastic polymer composition for micro 3D printing and uses thereof” (priority 2020, dated 2025):

Test system: cardiac tissues
Conditions: compared with cardiac tissue without compound (baseline)
Protocol: Human iPSC cardiomyocytes (CMs) were differentiated from hiPSC line BJ1D by using monolayer differentiation protocols (Lian, et al. 2013; Yang, et al. 2008). The disassociation of cardiomyocytes into single cells was performed at day 21 of stem cell differentiation, using previous methods (Yang, et al. 2008). The disassociated cells and cardiac fibroblast (Lonza, NHCF-V) were mixed to reach a cell number ratio of 10:1. The resultant cells were remixed in a collagen hydrogel at a cell number of 5.5×10^7 cells/mL. […]
Cardiac cultured in a multiwell plate was placed in a chamber (37° C., 5% CO2) of fluorescent microscope (Olympus Corporation). ⅓rd of the media was extracted from one well of the multiwell-plate device. […] After 10-15 min, videos in the green and red channel were recorded. The force and Ca^2+ transients were measured under electrical stimulation at 1 Hz. […] Ca^2+ transients were recorded under fluorescent microscope using a green-light channel (λex490 nm/λem525 nm). The ratio of peak fluorescence to baseline fluorescence intensity was measured the relative Ca^2+ change in the tissues by Image J software (NIH) as described previously (Zhao, et al. 2019). […]
With built-in sensors and electrodes, the contractile force of tissues can be measured in situ. […]

With `CCN(CC)CC(=O)Nc1c(C)cccc1C` [lidocaine] the “electrical excitability of a cardiac tissue” value was “inhibited”.
